Laboratory results as given in patent US12582687B2, “Composition based on Crocus sativus and Cannabis sativa” (priority 2021, dated 2026).
Like-named read-outs stand apart in the source and are kept apart here.

How the values were obtained:
[1] = test system: anxiety symptoms in healthy adults under stress; details: CBD alone without THC, cited from earlier work
[2] = target: acetylcholinesterase (AchE) (Homo sapiens, UniProt P22303); assay: Acetylcholinesterase activity, in vitro colorimetric Ellman method; type: biochemical; details: AchE 0.22 U/ml, ATCl 1 mM, 20 min
Sequence of acetylcholinesterase (AchE) (P22303 32-614, species assumed): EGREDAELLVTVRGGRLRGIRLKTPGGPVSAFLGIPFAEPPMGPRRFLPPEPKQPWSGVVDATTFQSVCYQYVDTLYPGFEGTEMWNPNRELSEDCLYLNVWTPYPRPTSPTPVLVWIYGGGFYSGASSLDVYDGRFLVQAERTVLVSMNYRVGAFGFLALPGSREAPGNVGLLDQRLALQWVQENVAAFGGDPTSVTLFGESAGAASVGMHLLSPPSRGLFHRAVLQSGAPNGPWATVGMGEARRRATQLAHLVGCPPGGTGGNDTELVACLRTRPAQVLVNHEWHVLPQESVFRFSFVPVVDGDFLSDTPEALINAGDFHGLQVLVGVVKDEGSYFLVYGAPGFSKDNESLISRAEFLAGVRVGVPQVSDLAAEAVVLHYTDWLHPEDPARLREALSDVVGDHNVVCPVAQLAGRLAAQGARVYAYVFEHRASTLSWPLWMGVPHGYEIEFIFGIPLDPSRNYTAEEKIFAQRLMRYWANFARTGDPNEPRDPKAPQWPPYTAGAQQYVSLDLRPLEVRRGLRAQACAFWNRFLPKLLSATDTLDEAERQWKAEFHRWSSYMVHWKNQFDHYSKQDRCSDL
Description: The aim of this assay is to compare acetylcholinesterase (AchE) activity in the presence of the composition according to the invention, with a safranal/cannabidiol (CBD) ratio of 0.03, with acetylcholinesterase activity in the presence of safranal or CBD alone.
AchE activity was monitored and measured in vitro by colorimetric reaction using the Ellman method. Acetylthiocholine (ATCl) is degraded to thiocholine and acetic acid by AChE. The thiocholine then reacts with the dithiobisnitrobenzoic ion (DTNB) and the resulting ion (TNB) gives a yellow coloration. In a 96-well plate, the following amounts were deposited in each well: 55 μl buffer (Tris-HCl 50 mM), 75 μl DTNB (5 mM), 25 μl AchE (0.22 U/ml), 25 μl test sample (buffer or safranal (1.2 μg/ml), or CBD (40 μg/ml), or safranal (1.2 μg/ml)+CBD (40 μg/ml).
At the last moment, 25 μL of ATCl (1 mM) was added to initiate the reaction. The absorbance was then monitored at 405 nM for 20 min. For each well, the absorbance values over time (Ax) are normalized relative to the first absorbance measurement (AT0) according to the following formula: Normalized absorbance (An)=Ax−AT0. The percentage of AchE inhibition was determined by comparing the slopes of the curves (in the linear part) against the control according to the following equation [Math 1]. […]

Structure (SMILES) | effect on anxiety symptoms ([1]; dose 300 mg) | effect on anxiety symptoms ([1]; higher dose 900 mg) | effect on anxiety symptoms ([1]; lower dose 100 mg) | inhibition at 40 µg/mL ([2]; CBD 40 μg/ml test sample, read-out: decrease in AchE activity (percentage of AchE inhibition relative to control)) [%] | AchE activity compared with the control ([2]; safranal 1.2 μg/ml test sample)
C=C(C)[C@@H]1CCC(C)=C[C@H]1c1c(O)cc(CCCCC)cc1O [CBD, 2-[(1R,6R)-6-isopropenyl-3-methylcyclohex-2-en-1-yl]-5-pentylbenzene-1,3-diol] | reducing anxiety symptoms | no effect | no effect | 69.8 | –
CC1=C(C=O)C(C)(C)CC=C1 [safranal] | – | – | – | – | unchanged
